Literature values in patent US20150190331A1, “NAIL LACQUER COMPOSITION WITH HYPOSENSITIVITY” (Pakaly Enterprise Co., Ltd., priority 2014, published 2015).

Tested on: guinea pigs
Details: in guinea pigs; International Journal of Toxicology 24(Suppl 5): 53-100, 2005

Compound	sensitizer strength
C=C(C)C(=O)OCCCC [Butyl Methacrylate]	moderate sensitizers
C=C(C)C(=O)OC1CCCCC1 [Cyclohexyl Methacrylate]	moderate sensitizers
C=C(C)C(=O)OCCO [HEMA, hydroxyethylmethacrylate]	strong sensitizers
C=C(C)C(=O)OCCCCCC [Hexyl Methacrylate]	moderate sensitizers
C=C(C)C(=O)OCCCO [Hydroxypropyl Methacrylate]	weak sensitizer
C=C(C)C(=O)OCC(O)COc1ccc(C(C)(C)c2ccc(OCC(O)COC(=O)C(=C)C)cc2)cc1 (centres unmarked) [Isopropylidenediphenyl Bisglycidyl Methacrylate]	strong sensitizers
C=C(C)C(=O)OCCCCCCCCCCCC [Lauryl Methacrylate]	strong sensitizers
C=C(C)C(=O)OCCOCCOCCOC(=O)C(=C)C [Triethylene Glycol Dimethacrylate]	not sensitizers
C=C(C)C(=O)OCC(CC)(COC(=O)C(=C)C)COC(=O)C(=C)C [Trimethylolpropane Trimethacrylate]	strong sensitizers
PEG-4 Dimethacrylate	not sensitizers
Urethane Methacrylate	moderate sensitizers
